Results taken from patent US9345247B2, “Azaindole carboxylic acid amides and azaindole thiocarboxylic acid amides for use as insecticides and acaricides” (BAYER CROPSCIENCE AG, priority 2012, dated 2016).
Where two headings read alike, the source gives them in different places.

Key:
[1] = log P by HPLC on reversed-phase column (C18), EEC directive 79/831 Annex V.A8; type: physicochemical; conditions: for chromatographic logP: reversed-phase HPLC column (C18)
Method: a) The determination of the W by LC-MS in the acidic range is effected at pH 2.7, acetonitrile (contains 0.1% formic acid) and water as eluents; linear gradient from 10% acetonitrile to 95% acetonitrile, instrument: Agilent 1100 LC-System, Agilent MSD System, HTS PAL. The log P values reported in the tables and Preparation Examples above were determined in accordance with EEC directive 79/831 Annex V.A8 by HPLC (High Performance Liquid Chromatography) using a reversed-phase column (C18). Temperature 43° C. The calibration is effected with unbranched alkan-2-ones (having 3 to 16 carbon atoms), for which the log P values are known.

[2] = test system: larvae of the mustard beetle (Phaedon cochleariae); assay: Phaedon cochleariae spray test (PHAECO); type: in vivo; conditions: for efficacy / pest or weed control at 100 g/ha: spray, after 7 days; for pest or weed control at 100 g/ha / percent efficacy (larval mortality) at 20 g/ha: Phaedon cochleariae, 168 h; for pest or weed control at 100 g/ha: read-out: efficacy; for percent efficacy (larval mortality) at 20 g/ha: PHAECO, 20 g of ai/ha, 7 d, read-out: % Efficacy dat
Method: Phaedon cochleariae—Spray Test (PHAECO)
To produce a suitable preparation of active compound, 1 part by weight of active compound is mixed with the stated amounts of solvent and emulsifier, and the concentrate is diluted with emulsifier-containing water to the desired concentration.
Discs of Chinese cabbage leaves (Brassica pekinensis) are sprayed with an active compound formulation of the desired concentration and, after drying, populated with larvae of the mustard beetle (Phaedon cochleariae).
After 7 days, the efficacy in % is determined. 100% means that all the beetle larvae have been killed; 0% means that no beetle larvae have been killed.
After the stated period of time, the effect in % is determined 100% means that all the beetle larvae have been killed; 0% means that no beetle larvae have been killed.

[3] = HPLC, acidic range pH 2.7, 43° C.
[4] = HPLC, acidic range pH 2.7, 43° C., read-out: log p

| Compound | log p [1, 3] | efficacy ([2]; 100 g/ha) | also measured |
| --- | --- | --- | --- |
| CCn1c(C(=O)NC(c2ccc(F)c(C(F)(F)F)c2)C(F)(F)F)cc2nc(C(=O)NC3CC3)ccc21 (centres unmarked) [Compound 2, N^5-Cyclopropyl-1-ethyl-N^2-{2,2,2-trifluoro-1-[4-fluoro-3-(trifluoromethyl)phenyl]ethyl}-1H-pyrrolo[3,2-b]pyridine-2,5-dicarboxamide] |  |  | chromatographic logP ([1]; pH 2.7, final compounds of the synthesis examples, read-out: log P (HPLC-MS)): 3.78 |
| CCn1c(C(=O)NC(c2cccc(C(F)(F)F)c2)C(F)(F)F)cc2cc(C(=O)NC(CF)CF)c(C)nc21 (centres unmarked) [Compound 8] | 3.67 | 100% |  |
| CCn1c(C(=O)NC(c2cccc(C(F)(F)F)c2)C(F)(F)F)cc2cc(C(=O)NC(C)C)c(Cl)nc21 (centres unmarked) [Compound 14] |  |  | chromatographic logP [1, 4]: 3.97; pest or weed control at 100 g/ha ([2]; 100 g/ha): 100%; percent efficacy (larval mortality) at 20 g/ha [2]: 100% |
| CCn1c(C(=O)NC(c2cc(Cl)c(F)c(Cl)c2F)C(F)(F)F)cc2cc(C(=O)NC3CC3)c(Cl)nc21 (centres unmarked) [Compound 18] | 4.43 | 100% |  |
| CCn1c(C(=O)NC(c2cc(Cl)c(F)c(Cl)c2)C(F)(F)F)cc2cc(C(=O)NC3CC3)c(Cl)nc21 (centres unmarked) [Compound 20] | 4.23 | 100% |  |
| CCn1c(C(=O)NC(c2cc(Cl)c(F)c(Cl)c2)C(F)(F)F)cc2cc(C(=O)NC(C)C)c(Cl)nc21 (centres unmarked) [Compound 21] | 4.44 |  |  |
| CCCNC(=O)c1cc2cc(C(=O)NC(c3cccc(C(F)(F)F)c3)C(F)(F)F)n(CC)c2nc1Cl (centres unmarked) [Compound 34] |  |  | chromatographic logP [1, 4]: 3.99; pest or weed control at 100 g/ha ([2]; 100 g/ha): 100%; percent efficacy (larval mortality) at 20 g/ha [2]: 100% |
| CCn1c(C(=O)NC(c2cccc(C(F)(F)F)c2)C(F)(F)F)cc2cc(C(=O)NC(CF)CF)c(Cl)nc21 (centres unmarked) [Compound 35] | 3.83 |  |  |
| CCn1c(C(=O)NC(c2cccc(C(F)(F)F)c2)C(F)(F)F)cc2cc(C(=O)NC(C)CF)c(Cl)nc21 (centres unmarked) [Compound 36] | 3.83 |  |  |
| CCn1c(C(=O)NC(c2cccc(C(F)(F)F)c2)C(F)(F)F)cc2cc(C(=O)Nc3ccc(Cl)cn3)c(Cl)nc21 (centres unmarked) [Compound 40] | 4.88 | 83% | efficacy ([2]; 500 g/ha): 100% |
| CCn1c(C(=O)NC(c2cc(Cl)c(F)c(Cl)c2)C(F)(F)F)cc2cc(C(=O)NC3CCC3)c(Cl)nc21 (centres unmarked) [Compound 48] | 4.62 |  |  |
| CCn1c(C(=O)NC(c2ccc(F)c(Cl)c2)C(F)(F)F)cc2cc(C(=O)NC3CCC3)c(Cl)nc21 (centres unmarked) [Compound 49] | 4.11 |  |  |
| CCn1c(C(=O)NC(c2ccc(F)c(C(F)(F)F)c2)C(F)(F)F)cc2cc(C(=O)NC(C)C)c(Cl)nc21 (centres unmarked) [Compound 50] | 4.08 | 100% |  |
| CCn1c(C(=O)NC(c2cccc(C(F)(F)F)c2)C(F)(F)F)cc2cc(C(=O)NC)c(Cl)nc21 (centres unmarked) [Compound 51] | 3.40 | 100% |  |
| CCn1c(C(=O)NC(c2ccc(Cl)c(Cl)c2)C(F)(F)F)cc2cc(C(=O)NC(C)C)c(Cl)nc21 (centres unmarked) [Compound 56] | 4.29 |  |  |
| CCn1c(C(=O)NC(c2cc(Cl)c(F)c(Cl)c2)C(F)(F)F)cc2cc(C(=O)NC3(C#N)CC3)c(C(F)(F)F)nc21 (centres unmarked) [Compound 77] | 4.36 |  |  |
| C#CCn1c(C(=O)NC(c2cccc(C(F)(F)F)c2)C(F)(F)F)cc2cc(C(=O)NC3(C#N)CC3)c(C)nc21 (centres unmarked) [Compound 81] | 3.34 |  |  |
| CCn1c(C(=O)NC(c2ccc(Cl)c(C(F)(F)F)c2)C(F)(F)F)cc2cc(C(=O)NC3(C#N)CC3)c(Cl)nc21 (centres unmarked) [Compound 83] | 4.02 |  |  |
| CCn1c(C(=O)NC(c2ccc(Cl)c(C(F)(F)F)c2)C(F)(F)F)cc2cc(C(=O)NC3(C(N)=S)CC3)c(Cl)nc21 (centres unmarked) [Compound 84] | 3.90 |  |  |
| CCn1c(C(=O)NC(c2ccc(Cl)c(C(F)(F)F)c2)C(F)(F)F)cc2cc(C(=O)NC3CC3)c(Cl)nc21 (centres unmarked) [Compound 88] | 4.06 |  |  |
| CCC(=O)NCc1cc2cc(C(=O)NC(c3cccc(C(F)(F)F)c3)C(F)(F)F)n(CC)c2nc1C (centres unmarked) [Compound 93] | 3.45 | 100% |  |
| CCn1c(C(=O)NC(c2ccc(Cl)c(C(F)(F)F)c2)C(F)(F)F)c(Br)c2cc(C(=O)NC3(C(N)=S)CC3)c(C)nc21 (centres unmarked) [Compound 98] |  |  | chromatographic logP [1, 4]: 3.97 |
| CCn1c(C(=O)NC(c2cccc(C(F)(F)F)c2)C(F)(F)F)cc2cc(C(=O)NC(C)C)c(Cl)cc21 (centres unmarked) [reference compound] |  |  | percent efficacy (larval mortality) at 20 g/ha [2]: 0% |
| CCCNC(=O)c1cc2cc(C(=O)NC(c3cccc(C(F)(F)F)c3)C(F)(F)F)n(CC)c2cc1Cl (centres unmarked) [reference compound] |  |  | percent efficacy (larval mortality) at 20 g/ha [2]: 67% |

Second part, led by results:

| log p [1, 3] | Compound | efficacy ([2]; 100 g/ha) | also measured |
| --- | --- | --- | --- |
| 3.19 | CCn1c(C(=O)NC(c2cccc(C(F)(F)F)c2)C(F)(F)F)cc2cc(C(=O)NC3CC3)cnc21 (centres unmarked) [Compound 3] | 100% |  |
| 3.74 | CCn1c(C(=O)NC(c2cccc(C(F)(F)F)c2)C(F)(F)F)cc2cc(C(=O)NC(C)C)c(C)nc21 (centres unmarked) [Compound 4] | 100% |  |
| 3.79 | CCn1c(C(=O)NC(c2cccc(C(F)(F)F)c2)C(F)(F)F)cc2cc(C(=O)NCC(F)F)c(Cl)nc21 (centres unmarked) [Compound 13] | 100% |  |
| 4.62 | CCn1c(C(=O)NC(c2cc(Cl)c(F)c(Cl)c2F)C(F)(F)F)cc2cc(C(=O)NC(C)C)c(Cl)nc21 (centres unmarked) [Compound 19] |  |  |
| 3.68 | C#CCn1c(C(=O)NC(c2cccc(C(F)(F)F)c2)C(F)(F)F)cc2cc(C(=O)NC(C)C)c(Cl)nc21 (centres unmarked) [Compound 24] | 100% | efficacy ([2]; 500 g/ha): 100% |
| 3.18 | CCn1c(C(=O)NC(c2cccc(C(F)(F)F)c2)C(F)(F)F)cc2cc(C(=O)NCc3ccccn3)c(Cl)nc21 (centres unmarked) [Compound 37] | 100% |  |
| 3.58 | CCn1c(C(=O)NC(c2cccc(C(F)(F)F)c2)C(F)(F)F)cc2cc(C(=O)NCC(=O)OC)c(Cl)nc21 (centres unmarked) [Compound 44] |  |  |
| 3.69 | C#CCNC(=O)c1cc2cc(C(=O)NC(c3cccc(C(F)(F)F)c3)C(F)(F)F)n(CC)c2nc1Cl (centres unmarked) [Compound 45] | 100% |  |
| 4.20 | CCn1c(C(=O)NC(c2ccc(F)c(C(F)(F)F)c2)C(F)(F)F)cc2cc(C(=O)NC3CCC3)c(Cl)nc21 (centres unmarked) [Compound 46] | 100% |  |
| 3.39 | CCn1c(C(=O)NC(c2cccc(C(F)(F)F)c2)C(F)(F)F)cc2cc(C(=O)NCc3ncccn3)c(Cl)nc21 (centres unmarked) [Compound 47] | 100% |  |
| 3.70 | CCNC(=O)c1cc2cc(C(=O)NC(c3cccc(C(F)(F)F)c3)C(F)(F)F)n(CC)c2nc1Cl (centres unmarked) [Compound 52] | 100% |  |
| 4.47 | CCn1c(C(=O)NC(c2ccc(Cl)c(Cl)c2)C(F)(F)F)cc2cc(C(=O)NC3CCC3)c(Cl)nc21 (centres unmarked) [Compound 54] |  |  |
| 3.32 | CCn1c(C(=O)NC(c2ccc(F)c(C(F)(F)F)c2)C(F)(F)F)cc2cc(C(=O)NCc3ccccn3)c(Cl)nc21 (centres unmarked) [Compound 55] | 83% |  |
| 4.06 | CCn1c(C(=O)NC(c2cccc(C(F)(F)F)c2)C(F)(F)F)cc2cc(C(=O)NCC3CC3)c(Cl)nc21 (centres unmarked) [Compound 57] | 100% |  |
| 4.49 | C#CCn1c(C(=O)NC(c2cccc(C(F)(F)F)c2)C(F)(F)F)cc2cc(C(=O)Nc3ccc(Cl)cn3)c(Cl)nc21 (centres unmarked) [Compound 61] | 83% |  |
| 4.25 | CCn1c(C(=O)NC(c2cc(Cl)c(F)c(Cl)c2)C(F)(F)F)cc2cc(C(=O)NC3(C(N)=S)CC3)c(C(F)(F)F)nc21 (centres unmarked) [Compound 78] |  |  |
| 4.04 | C#CCn1c(C(=O)NC(c2cc(Cl)c(F)c(Cl)c2)C(F)(F)F)cc2cc(C(=O)NC3CC3)c(C(F)(F)F)nc21 (centres unmarked) [Compound 79] |  |  |
| 3.99 | C#CCn1c(C(=O)NC(c2cc(Cl)c(F)c(Cl)c2F)C(F)(F)F)cc2cc(C(=O)NC3(C#N)CC3)c(Cl)nc21 (centres unmarked) [Compound 80] |  |  |
| 4.45 | CCn1c(C(=O)NC(c2cc(Cl)c(F)c(Cl)c2F)C(F)(F)F)cc2cc(C(=O)NC3(C(N)=S)CC3)c(C(F)(F)F)nc21 (centres unmarked) [Compound 82] |  |  |
| 4.42 | CCn1c(C(=O)NC(c2cc(Cl)c(F)c(Cl)c2)C(F)(F)F)cc2cc(C(=O)NC3CC3)c(C(F)(F)F)nc21 (centres unmarked) [Compound 86] |  |  |
| 4.66 | CCn1c(C(=O)NC(c2cc(Cl)c(F)c(Cl)c2F)C(F)(F)F)cc2cc(C(=O)NC3CC3)c(C(F)(F)F)nc21 (centres unmarked) [Compound 87] |  |  |
| 3.72 | CCn1c(C(=O)NC(c2ccc(Cl)c(C(F)(F)F)c2)C(F)(F)F)cc2cc(C(=O)NC3(C(N)=S)CC3)c(C)nc21 (centres unmarked) [Compound 89] |  |  |
| 3.91 | CCn1c(C(=O)NC(c2ccc(Cl)c(C(F)(F)F)c2)C(F)(F)F)cc2cc(C(=O)NC3(C#N)CC3)c(C)nc21 (centres unmarked) [Compound 90] |  |  |
| 3.90 | CCn1c(C(=O)NC(c2ccc(Cl)c(C(F)(F)F)c2)C(F)(F)F)cc2cc(C(=O)NC3CC3)c(C)nc21 (centres unmarked) [Compound 91] |  |  |
| 3.59 | CCn1c(C(=O)NC(c2cccc(C(F)(F)F)c2)C(F)(F)F)cc2cc(CNC(=O)C3CC3)c(C)nc21 (centres unmarked) [Compound 92] |  |  |
